From ChEMBL document CHEMBL4330079, “Cyclin G-associated kinase (GAK) affinity and antiviral activity studies of a series of 3-C-substituted isothiazolo[4,3-b]pyridines” (Eur J Med Chem, 2019) come the findings set out here.

As a reminder, the Kd is the concentration at which binding is half-saturated. A low value points to a tighter complex. The EC50 is the concentration that produces a half-maximal response. A higher EC50 goes with lower potency in that assay.

Data set [1] concerns the target T1, Cyclin-G-associated kinase (Homo sapiens, UniProt O14976).
T1 sequence (O14976 whole entry): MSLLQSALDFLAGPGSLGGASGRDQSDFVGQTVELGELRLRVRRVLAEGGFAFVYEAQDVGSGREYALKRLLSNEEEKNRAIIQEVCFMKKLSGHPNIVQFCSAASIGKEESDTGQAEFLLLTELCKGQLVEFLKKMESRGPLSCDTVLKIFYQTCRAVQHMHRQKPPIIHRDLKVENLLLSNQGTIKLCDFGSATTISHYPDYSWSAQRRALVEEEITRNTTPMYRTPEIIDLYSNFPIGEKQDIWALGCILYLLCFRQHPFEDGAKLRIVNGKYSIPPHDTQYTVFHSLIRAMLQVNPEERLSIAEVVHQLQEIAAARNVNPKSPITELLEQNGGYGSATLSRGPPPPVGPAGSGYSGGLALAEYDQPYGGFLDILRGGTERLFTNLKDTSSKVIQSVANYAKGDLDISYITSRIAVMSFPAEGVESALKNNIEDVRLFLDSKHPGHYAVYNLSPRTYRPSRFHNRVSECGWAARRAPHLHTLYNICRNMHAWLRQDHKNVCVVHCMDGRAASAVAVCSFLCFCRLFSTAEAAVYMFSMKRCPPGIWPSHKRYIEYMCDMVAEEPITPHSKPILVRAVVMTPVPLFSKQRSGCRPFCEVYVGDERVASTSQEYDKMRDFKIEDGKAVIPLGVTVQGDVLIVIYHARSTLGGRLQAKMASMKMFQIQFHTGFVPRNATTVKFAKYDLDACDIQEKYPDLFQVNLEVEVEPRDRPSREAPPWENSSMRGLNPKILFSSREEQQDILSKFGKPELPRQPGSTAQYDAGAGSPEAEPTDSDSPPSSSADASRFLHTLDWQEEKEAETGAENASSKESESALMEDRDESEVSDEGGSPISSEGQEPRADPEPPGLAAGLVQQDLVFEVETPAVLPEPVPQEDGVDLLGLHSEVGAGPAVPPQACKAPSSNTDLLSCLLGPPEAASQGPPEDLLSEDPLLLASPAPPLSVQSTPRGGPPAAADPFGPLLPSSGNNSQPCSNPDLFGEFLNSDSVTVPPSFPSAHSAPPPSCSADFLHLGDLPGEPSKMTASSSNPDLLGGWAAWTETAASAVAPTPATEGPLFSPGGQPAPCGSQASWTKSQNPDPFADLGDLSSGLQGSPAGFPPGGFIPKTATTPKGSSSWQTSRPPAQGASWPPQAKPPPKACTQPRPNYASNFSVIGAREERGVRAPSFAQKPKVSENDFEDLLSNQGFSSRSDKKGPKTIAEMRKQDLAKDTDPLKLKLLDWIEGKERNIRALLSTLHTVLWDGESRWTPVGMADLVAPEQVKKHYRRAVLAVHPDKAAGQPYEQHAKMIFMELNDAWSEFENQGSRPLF
Nature of the data set: Binding affinity to wild type DNA-tagged human GAK (G13 to Y338 residues) expressed in bacterial expression system by quantitative PCR based KINOMEscan assay.

Another data set relates to Huh-7. Put plainly: Cytotoxicity against human HuH7 cells assessed as reduction in cell viability at 0.01 to 10 uM after 48 hrs by Cell-Titer Glo assay. The format is cell-based. To be noted: huh-7, 48 h.
A further data set relates to dengue virus type 2. Nature of the data set: Antiviral activity against DENV2 New Guinea C infected in human HuH7 cells after 48 hrs by luciferase reporter gene assay. The format is functional, organism-based. To be noted: Thailand/NGS-C/1944, Huh-7, 48 h.

The compound `COc1ccc(-c2cnc3c(-c4ccc(C#N)cc4)snc3c2)cc1OC` gave a Kd in data set [1] of more than 30 µM. In data set [1], `COC(=O)c1ccc(-c2snc3cc(-c4ccc(OC)c(OC)c4)cnc23)cc1` showed a Kd of more than 30 µM. Take `COc1ccc(-c2cnc3c(C#Cc4ccccc4)snc3c2)cc1OC`: the Kd in data set [1] is more than 30 µM.

As for `COc1ccc(-c2cnc3c(-c4ccc(OC)c(OC)c4)snc3c2)cc1OC`, the Activity entry with Huh-7 is on record as “Non-Toxic”. In the data set on dengue virus type 2, this compound gave an EC50 of 3.35 µM.

`COc1ccc(-c2cnc3c(-c4ccncc4)snc3c2)cc1OC` displayed a Kd in data set [1] of 0.52 µM. On the same count and under the same terms, for `COc1ccc(-c2cnc3c(-c4ccccc4)snc3c2)cc1OC` the value was 0.77 µM; for `COc1ccc(-c2cnc3c(-c4ccsc4)snc3c2)cc1OC`, 0.86 µM.
